Laboratory results as given in patent EP1021178B1, “SELENOPHENE ANTI-TUMOR AGENTS” (Purdue Research Foundation, priority 1996, dated 1997).

Experiments:
Test in all cases: NCI human tumor cell panel
TK-10 = details: for CC50: TK-10, read-out: Log10 LC50 (converted)
SNB-75 = details: for CC50: SNB-75, read-out: Log10 LC50 (converted)
MDA-MB-435 = details: MDA-MB-435, read-out: Log10 LC50 (converted)
OVCAR-8 = details: OVCAR-8, read-out: Log10 LC50 (converted)
HT29 = details: HT-29, read-out: Log10 LC50 (converted)
SF-295 = details: SF-295, read-out: Log10 LC50 (converted)
PC-3 = assay type: cell-based; details: PC-3, read-out: Log10 LC50 (converted)
Source text: (§1) Considering the diversity of tumors in terms of cell type, morphology, growth rate and other cellular characteristics, the U.S. National Cancer Institute (NCI) has developed a "disease-oriented" approach to antitumor activity screening (M.R. Boyd, in "Principle of Practice of Oncology" J.T. Devita, S. Hellman, S.A. Rosenberg (Eds.) Vol. 3, PPO Update, No. 10, 1989). This in vitro prescreening system is based on the measurement of antitumor cytotoxicity against human tumor cell line panels consisting of approximately 60 cell lines of major human tumors (including leukemia and slower growing tumor cells such as lung, colon, breast, skin, kidney, etc.). The most important advantage of the new in vitro screening panels is the opportunity to identify compounds that are selectively more cytotoxic to cells of slowly growing solid tumors than to rapidly growing leukemia cells.
(§2) The cytotoxic activity of the present selenophene compounds have been measured utilizing two different assays or screens. The first screen measures the cytotoxicity against a panel of sixty different human tumor cell lines. This assay provides data regarding the general cytotoxicity of an individual compound. In particular this type of assay is useful in identifying compounds which have enhanced cytotoxic activity against slow growing tumors as compared to faster growing tumor cells such as leukemia tumor cell lines. The identification of such compounds is critical since previously identified antitumor agents have low cytotoxic activity against slower growing tumors. […] The specificity of a cytotoxic compound for tumor cell lines relative to normal cells is an important characteristic of an effective antitumor agent.
(§3) Antitumor cytotoxicity data generated from the National Cancer Institute human tumor cell panels can also be expressed in a graphic pattern (mean graph) to display differential cell growth inhibition (K.D. Paull, R.H. Shoemaker, L. Hodes, A. Monks, D.A. Scudiero, L. Rubinstein, J. Plowman and M.R. Boyd, J. Nail. Cancer Inst., 81, 1088, 1989.) In the mean graph, the arithmetic mean of the logarithm of the GI50 (50% growth inhibition), TGI (total growth inhibition) or LC50 (50% lethal concentration) values is used as an anchor point. […] The length of a bar is indicative of differential cytotoxicity against a specific type of tumor cells or tumor panels.
(§4) The antitumor cytotoxicity of the selenophene compounds tested in those in vitro assays was measured by a microculture assay using either a 3-(4,5-dimethylthiazol-2-yl)-2,5-diphenyltetrazolium bromide (MTT) or sulforhodamine B (SRB) based assay. [M.R. Boyd in "Principles and Practices of Oncology," V.T. DeVita, Jr.]. The experiments were conducted at Purdue University in 96-well microtiter plates and the cytotoxic effects of the selenophene compounds on those cells were measured by cell count using a Coulter Z.F. counter (Hialeah, FL). The results are expressed as GI50, the concentration of drug at which cell numbers are reduced to 50% of control cell culture [T.C.K. Chan, C.J. Chang, N.M. Koonchanok and R.L. Geahlen, Biochem. Biophys. Res. Commun., 193, 1152, (1993); S. Hellman and S.A. Rosenberg (Eds.), Vol. 3, PPO Updates, Number 10, (1989).]
(§5) This in vitro microculture assay has an advantage over in vivo assays in that results are obtained within a week as opposed to several months. The MTT assay is based on the production of a dark blue formazan product by dehydrogenase in the mitochondria of live tumor cells after exposure to drug for 6 days [M.C. Alley, D.A. Scudiero, A. Monks, M.L. Hursey, M.J. Czerwinski, D.L. Fine, B.J. Abbott, J.G. Mayo, R.H. Shoemaker and M.R. Boyd, Cancer Res., 48, 589, 1988]. Thus, only live cells are stained and can be measured at 570 nm. […]

CCRF-CEM = assay type: cell-based; details: read-out: Log10 LC50 (converted)
Source text: as §1, §2, §3, §4, §5

U251 = assay type: cell-based; details: U-251, read-out: Log10 LC50 (converted)
Source text: as §1, §2, §3, §4, §5

MCF7 = assay type: cell-based; details: MCF7, read-out: Log10 LC50 (converted)
Source text: as §1, §2, §3, §4, §5

MDA-N = assay type: cell-based; details: read-out: Log10 LC50 (converted)
Source text: as §1, §2, §3, §4, §5

OVCAR-5 = assay type: cell-based; details: OVCAR-5, read-out: Log10 LC50 (converted)
Source text: as §1, §2, §3, §4, §5

KM12 = assay type: cell-based; details: KM12, read-out: Log10 LC50 (converted)
Source text: as §1, §2, §3, §4, §5

LOX IMVI = assay type: cell-based; details: read-out: Log10 LC50 (converted)
Source text: as §1, §2, §3, §4, §5

MCF7/ADR-RES = assay type: cell-based; details: MCF7, read-out: Log10 LC50 (converted)
Source text: as §1, §2, §3, §4, §5

SN12C = assay type: cell-based; details: read-out: Log10 LC50 (converted)
Source text: as §1, §2, §3, §4, §5

ACHN = assay type: cell-based; details: read-out: Log10 LC50 (converted)
Source text: as §1, §2, §3, §4, §5

SK-MEL-2 = assay type: cell-based; details: SK-MEL-2, read-out: Log10 LC50 (converted)
Source text: as §1, §2, §3, §4, §5

HS 578T = assay type: cell-based; details: read-out: Log10 LC50 (converted)
Source text: as §1, §2, §3, §4, §5

SW-620 = assay type: cell-based; details: SW-620, read-out: Log10 LC50 (converted)
Source text: as §1, §2, §3, §4, §5

EKVX = details: for CC50: read-out: Log10 LC50 (converted)
SK-MEL-5 = details: SK-MEL-5, read-out: Log10 LC50 (converted)

Compound	CC50 (TK-10) [µM]	CC50 (SNB-75) [µM]	CC50 (MDA-MB-435) [µM]	CC50 (OVCAR-8) [µM]	CC50 (HT29) [µM]	CC50 (SF-295) [µM]	CC50 (PC-3) [µM]	CC50 (CCRF-CEM) [µM]	CC50 (U251) [µM]	CC50 (MCF7) [µM]	LC50 (50% lethal concentration) (MDA-N) [µM]	CC50 (OVCAR-5) [µM]	CC50 (KM12) [µM]	CC50 (LOX IMVI) [µM]	CC50 (MCF7/ADR-RES) [µM]	CC50 (SN12C) [µM]	CC50 (ACHN) [µM]	CC50 (SK-MEL-2) [µM]	CC50 (EKVX) [µM]	CC50 (SK-MEL-5) [µM]	other results
OCc1ccc(-c2ccc(-c3ccc(CO)[se]3)s2)s1	64.6	> 100	> 100	> 100	> 100	> 100	> 100	> 100	72.4	> 100	> 100	> 100	> 100	56.2	> 100	> 100	> 100	> 100	> 100	> 100	CC50 (HS 578T): > 100 µM; CC50 (SW-620): > 100 µM
OCc1ccc(-c2ccc(-c3ccc(CO)[se]3)[se]2)[se]1	15.8	> 100	49	72.4	66.1	70.8	35.5	> 100	50.1	47.9	74.1	> 100	50.1	> 100	> 100	> 100	> 100	69.2	> 100	6.31	IC (TGI) (TK-10; TK-10, read-out: Log10 TGI): 0.661 µM; CC50 (HS 578T): 46.8 µM; CC50 (SW-620): 9.55 µM
O=Cc1ccc(-c2ccc(-c3cccs3)[se]2)s1	53.7	> 100	> 100	> 100	> 100	> 100	> 100	> 100	> 100	> 100	> 100	> 100	> 100	> 100	> 100	> 100	> 100	> 100	> 100	> 100	IC (TGI) (SNB-75; SNB-75, read-out: Log10 TGI): 57.5 µM; CC50 (HS 578T): > 100 µM; CC50 (SW-620): > 100 µM
O=Cc1ccc(-c2ccc(-c3ccc(C=O)s3)[se]2)s1	> 100	> 100	> 100	> 100	> 100	> 100	> 100	> 100	89.1	> 100	> 100	> 100	> 100	> 100	> 100	> 100	> 100	> 100	> 100	> 100	CC50 (HS 578T): > 100 µM; CC50 (SW-620): > 100 µM
O=Cc1ccc(-c2ccc(-c3ccc(C=O)[se]3)s2)[se]1	> 100	> 100	> 100	> 100	> 100	> 100	> 100	> 100	> 100	> 100	> 100	3.55	> 100	> 100	> 100	> 100	> 100	> 100	> 100	> 100	CC50 (HS 578T): > 100 µM; CC50 (SW-620): > 100 µM; IC (TGI) (EKVX; read-out: Log10 TGI): > 100 µM
O=Cc1ccc(-c2ccc(-c3ccc[se]3)[se]2)[se]1	25.1	> 100	> 100	95.5	36.3	53.7	87.1	> 100	47.9	43.7	64.6	75.9	45.7	77.6		50.1	46.8	> 100	> 100	37.2	CC50 (HS 578T): 53.7 µM
OCc1ccc(-c2ccc(-c3ccc(CO)s3)[se]2)s1	> 100		> 100	> 100	> 100	> 100	> 100	> 100	> 100	> 100	> 100	> 100	> 100	> 100	> 100	> 100	> 100	> 100	> 100	> 100	CC50 (HS 578T): > 100 µM; CC50 (SW-620): > 100 µM
OCc1ccc(-c2ccc(-c3ccc[se]3)s2)[se]1	72.4	> 100	> 100	> 100	> 100	> 100	> 100	> 100	44.7	> 100	> 100		> 100	85.1	97.7	> 100	> 100	> 100	> 100	> 100	CC50 (HS 578T): > 100 µM; CC50 (SW-620): > 100 µM
OCc1ccc(-c2ccc(-c3ccc[se]3)[se]2)[se]1	> 100	> 100		> 100	58.9	72.4	36.3	> 100	55	29.5	> 100	> 100	52.5	37.2	> 100			69.2	42.7	29.5	CC50 (SW-620): 35.5 µM
